Assay [1] relates to MDA-MB-231 cells. Briefly: Inhibition of proliferation of triple-negative breast cancer cells, CellTiter-Glo. In kind it is cell-based. As to conditions: Homo sapiens, 120 h; MDA-MB-231, cultured for 5 days. As to the method:
Specifically, the following test was performed in order to evaluate the inhibitory activity of the compound according to the present invention against the cell proliferation in triple-negative breast cancer cells (TNBCs).
Cells were seeded in 180 μL of a culture broth at a density of 2,000 to 3,000 cells/well in a white clear bottom 96-well plate (Corning) according to the growth ability of each cell, and then cultured for 24 hours under conditions of 5% CO2 and 37° C. Thereafter, the compound was prepared by diluting a 10 mM stock solution three-fold with 100% DMSO at a total of 12 concentrations so that a peak concentration of the compound was in a range of 10 mM to 0.05 μM, and the diluted compound was then diluted in each cell culture medium so that a final concentration of the compound was in a range of 100 μM to 0.5 nM. 20 μL of a diluted solution diluted with a medium was added to the cell solution in which cells were seeded in the 96-well plate on the previous day so that a final concentration of the diluted solution was in a range of 10 μM to 0.05 nM. Each of the cells was cultured for 5 days. To check cell viability, a mixture provided in a CellTiter-Glo® Luminescent Cell Viability Assay Kit (Promega) was added to each of the cultured cell media, and cultured for another 10 minutes under a condition of 37° C. Then, a degree of luminescence (fluorescence) was measured. A degree of inhibition of the cell growth according to the treatment concentration of each of the compounds was calculated based on the fluorescence of the solvent control cells which were not treated with the compound.
For orientation: Cellular ATP, detected with luciferase, serves as a proxy for viable cell number.

Assay [2] addresses T1, TTK (Homo sapiens, UniProt P33981).
T1 sequence (P33981 1-857): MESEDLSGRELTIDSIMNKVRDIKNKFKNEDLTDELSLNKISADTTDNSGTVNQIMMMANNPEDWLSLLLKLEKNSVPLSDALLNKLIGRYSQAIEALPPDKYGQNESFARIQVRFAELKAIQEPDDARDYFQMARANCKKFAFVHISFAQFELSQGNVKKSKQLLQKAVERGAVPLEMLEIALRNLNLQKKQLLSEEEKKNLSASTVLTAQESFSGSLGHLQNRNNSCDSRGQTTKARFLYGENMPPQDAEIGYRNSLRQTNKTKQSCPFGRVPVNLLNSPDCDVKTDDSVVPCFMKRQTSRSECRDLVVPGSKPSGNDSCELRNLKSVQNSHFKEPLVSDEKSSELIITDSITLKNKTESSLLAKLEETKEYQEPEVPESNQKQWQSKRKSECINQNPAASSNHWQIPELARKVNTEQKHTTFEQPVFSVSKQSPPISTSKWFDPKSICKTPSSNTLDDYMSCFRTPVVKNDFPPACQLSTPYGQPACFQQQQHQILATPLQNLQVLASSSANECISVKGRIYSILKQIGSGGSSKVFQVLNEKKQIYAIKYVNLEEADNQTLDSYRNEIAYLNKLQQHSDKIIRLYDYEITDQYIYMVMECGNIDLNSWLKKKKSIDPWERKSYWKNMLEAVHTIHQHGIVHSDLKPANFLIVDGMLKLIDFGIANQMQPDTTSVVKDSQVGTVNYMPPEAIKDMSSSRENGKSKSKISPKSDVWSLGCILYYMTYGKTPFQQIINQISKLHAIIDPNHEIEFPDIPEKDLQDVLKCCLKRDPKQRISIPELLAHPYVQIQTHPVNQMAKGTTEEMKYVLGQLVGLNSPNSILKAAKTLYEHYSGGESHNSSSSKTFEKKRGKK
Briefly: TTK enzyme activity, ADP-Glo kinase assay. In kind it is biochemical. More on the design: purchased SignalChem T20-10G. As to conditions: purified human TTK, ATP 10 μM, 25° C., 2 hours. As to the method:
To evaluate an inhibitory activity of the compound according to the present invention against TTK (MPS1), an experiment was performed as follows.
Each of the Example compounds was reacted with a purified human TTK (SignalChem #T20-10G) enzyme to evaluate an ability to inhibit an enzyme using a method as described below. A composition of 40 mM Tris-HCl (pH 7.4), 20 mM MgCl2, 0.5 mg/mL BSA, and 50 μM DTT was used as a reaction buffer, and all reactions of test substances were performed in the reaction buffer. […] In the test, purified ATP (10 μM) and an enzyme substrate (0.2 μg) were reacted with a human TTK (25 ng) enzyme at 25° C. for 2 hours, and the enzyme activity was determined using an in vitro ADP-Glo™ kinase assay (Promega). […] The degree of inhibition of the enzyme activity according to the treatment concentration of each of the compounds was calculated based on the fluorescence of the enzyme activity of the solvent control which was not treated with the compound.

Results on 19 molecules are retold here after US20230183243A1, “HETEROARYL DERIVATIVES AND PHARMACEUTICAL COMPOSITION COMPRISING SAME AS ACTIVE INGREDIENT” (VORONOI INC., priority 2019, published 2023).

As usually defined, the GI50 is the concentration at which growth is held to half of that of the control. Low values mean greater sensitivity of the cells, high ones lower sensitivity of the cells. Usually IC50 stands for the concentration that gives 50% inhibition. Higher therefore signals weaker potency. In assay [1], `COc1cc(-c2ccnn2C)c(C)cc1Nc1nc(NC2CCCC2)c2c(C#N)c[nH]c2n1` [Example 35, 4-(cyclopentylamino)-2-((2-methoxy-5-methyl-4-(1-methyl-1H-pyrazol-5-yl)phenyl)amino)-7H-pyrrolo[2,3-d] pyrimidine-5-carbonitrile] returned a GI50 of 100 to 1000 nM. Further, the IC50 in assay [2] was 200 to 1000 nM.

With `Cn1nccc1-c1ccc(Nc2nc(NC3CCCCC3)c3c(C#N)c[nH]c3n2)c2c1OCCO2` [Example 39, 4-(cyclohexylamino)-2-((8-(1-methyl-1H-pyrazol-5-yl)-2,3-dihydrobenzo[b][1,4]dioxin-5-yl)amino)-7H-pyrrolo[2,3-d] pyrimidine-5-carbonitrile], the GI50 in assay [1] was < 100 nM. Moreover, the IC50 in assay [2] is < 50 nM.

The molecule `COc1cc(-c2ccc(CN3CCN(C(C)=O)CC3)cc2)ccc1Nc1nc(NC2CCCC2)c2c(C#N)c[nH]c2n1` [Example 41, 2-((4′-((4-acetylpiperazin-1-yl)methyl)-3-methoxy-[1,1′-biphenyl]-4-yl)amino)-4-(cyclopentylamino)-7H-pyrrolo[2,3-d] pyrimidine-5-carbonitrile] came in with a GI50 in assay [1] of 100 to 1000 nM. Besides, in assay [2], the half-inhibitory concentration (IC50) was 50 to 200 nM.

Take `COc1cc(-c2ccc(F)nc2)ccc1Nc1nc(NC2CCCC2)c2c(C#N)c[nH]c2n1` [Example 42, 4-(cyclopentylamino)-2-((4-(6-fluoropyridin-3-yl)-2-methoxyphenyl)amino)-7H-pyrrolo[2,3-d] pyrimidine-5-carbonitrile]: in assay [1], the GI50 is < 100 nM. In addition, the IC50 in assay [2] lay within 50 to 200 nM.

For the molecule `COc1cc(-c2cnn(C)c2)ccc1Nc1nc(NC2CCCC2)c2c(C#N)c[nH]c2n1` [Example 43, 4-(cyclopentylamino)-2-((2-methoxy-4-(1-methyl-1H-pyrazol-4-yl)phenyl)amino)-7H-pyrrolo[2,3-d] pyrimidine-5-carbonitrile], in assay [1], the GI50 was < 100 nM. The IC50 in assay [2] was < 50 nM.

With `COc1cc(-c2c(C)noc2C)ccc1Nc1nc(NC2CCCC2)c2c(C#N)c[nH]c2n1` [Example 44, 4-(cyclopentylamino)-2-((4-(3,5-dimethylisoxazol-4-yl)-2-methoxyphenyl)amino)-7H-pyrrolo[2,3-d] pyrimidine-5-carbonitrile], the GI50 in assay [1] is < 100 nM. Also, the IC50 in assay [2] fell in the range of 50 to 200 nM.

With `CCOc1cc(-c2nncn2C)ccc1Nc1nc(C2CC2)c2c(C#N)c[nH]c2n1` [Example 46, 4-cyclopropyl-2-((2-ethoxy-4-(4-methyl-4H-1,2,4-triazol-3-yl)phenyl)amino)-7H-pyrrolo[2,3-d] pyrimidine-5-carbonitrile], the GI50 in assay [1] is > 1000 nM. The IC50 in assay [2] lay in the range of 200 to 1000 nM.

`CNc1nc(Nc2ccc(N3CCCC3=O)cc2OC)nc2[nH]cc(C(F)(F)F)c12` [Example 51, l-(3-methoxy-4-((4-(methylamino)-5-(trifluoromethyl)-7H-pyrrolo[2,3-d]pyrimidin-2-yl)amino)phenyl) pyrrolidin-2-one]: in assay [1], the GI50 was > 1000 nM. Further, in assay [2], the IC50 was 50 to 200 nM.

Turning to `COc1cc(N2CCCC2=O)ccc1Nc1nc(NC(C)C)c2c(C#N)c[nH]c2n1` [Example 65, 4-(isopropylamino)-2-((2-methoxy-4-(2-oxopyrrolidin-1-yl)phenyl)amino)-7H-pyrrolo[2,3-d] pyrimidine-5-carbonitrile], the GI50 in assay [1] is < 100 nM. The IC50 in assay [2] was < 50 nM.

On to `COc1cc(N2CCCC2=O)ccc1Nc1nc(NCC(C)C)c2c(C#N)c[nH]c2n1` [Example 66, 4-(isobutylamino)-2-((2-methoxy-4-(2-oxopyrrolidin-1-yl)phenyl)amino)-7H-pyrrolo[2,3-d] pyrimidine-5-carbonitrile], for which, in assay [1], the GI50 was < 100 nM. For the same molecule, the IC50 in assay [2] is < 50 nM.

For the molecule `CCCCNc1nc(Nc2ccc(N3CCCC3=O)cc2OC)nc2[nH]cc(C#N)c12` [Example 67, 4-(butylamino)-2-((2-methoxy-4-(2-oxopyrrolidin-1-yl)phenyl)amino)-7H-pyrrolo[2,3-d] pyrimidine-5-carbonitrile], in assay [1], the GI50 was < 100 nM. For the same molecule, the IC50 in assay [2] was < 50 nM.

With `COc1cc(N2CCCC2=O)ccc1Nc1nc(NC2CCC2)c2c(C#N)c[nH]c2n1` [Example 69, 4-(cyclobutylamino)-2-((2-methoxy-4-(2-oxopyrrolidin-1-yl)phenyl)amino)-7H-pyrrolo[2,3-d] pyrimidine-5-carbonitrile], the GI50 in assay [1] was > 1000 nM. Also, the IC50 in assay [2] was < 50 nM.

For `COc1cc(N2CCCC2=O)ccc1Nc1nc(NCC2CCC2)c2c(C#N)c[nH]c2n1` [Example 70, 4-((cyclobutylmethyl)amino)-2-((2-methoxy-4-(2-oxopyrrolidin-1-yl)phenyl)amino)-7H-pyrrolo[2,3-d] pyrimidine-5-carbonitrile], the GI50 in assay [1] was > 1000 nM. Moreover, the IC50 in assay [2] is < 50 nM.

For the molecule `COCC(C)(C)Nc1nc(Nc2ccc(N3CCCC3=O)cc2OC)nc2[nH]cc(C#N)c12` [Example 72, 4-((1-methoxy-2-methylpropan-2-yl)amino)-2-((2-methoxy-4-(2-oxopyrrolidin-1-yl)phenyl)amino)-7H-pyrrolo[2,3-d] pyrimidine-5-carbonitrile], the GI50 in assay [1] lay within 100 to 1000 nM. The IC50 in assay [2] is < 50 nM.

As for `COc1cc(N2CCCC2=O)ccc1Nc1nc(NC2COC2)c2c(C#N)c[nH]c2n1` [Example 73, 2-((2-methoxy-4-(2-oxopyrrolidin-1-yl)phenyl)amino)-4-(oxetan-3-ylamino)-7H-pyrrolo[2,3-d] pyrimidine-5-carbonitrile], in assay [1], the GI50 was < 100 nM. Besides, in assay [2], the IC50 is < 50 nM.

As for `CNc1nc(Nc2ccc(-c3ccnn3C)c3c2OCCO3)nc2[nH]cc(C#N)c12` [Example 75, 2-((8-(l-methyl-1H-pyrazol-5-yl)-2,3-dihydrobenzo[b][1,4]dioxin-5-yl)amino)-4-(methylamino)-1H-pyrrolo[2,3-d] pyrimidine-5-carbonitrile], in assay [1], the GI50 was < 100 nM. In addition, the IC50 in assay [2] is < 50 nM.

On to `CC(C)Nc1nc(Nc2ccc(-c3ccnn3C)c3c2OCCO3)nc2[nH]cc(C#N)c12` [Example 76, 4-(isopropylamino)-2-((8-(1-methyl-1H-pyrazol-5-yl)-2,3-dihydrobenzo[b][1,4]dioxin-5-yl)amino)-7H-pyrrolo[2,3-d] pyrimidine-5-carbonitrile], for which the GI50 in assay [1] is < 100 nM. Further, the IC50 in assay [2] was < 50 nM.

In the case of `N#Cc1c[nH]c2nc(Nc3ccc(N4CCCC4=O)c4c3OCCO4)nc(NC3CCCCC3)c12` [Example 79, 4-(cyclohexylamino)-2-((8-(2-oxopyrrolidin-1-yl)-2,3-dihydrobenzo[b][1,4]dioxin-5-yl)amino)-7H-pyrrolo[2,3-d] pyrimidine-5-carbonitrile], the GI50 in assay [1] is < 100 nM. The IC50 in assay [2] was < 50 nM.

With `Cn1nccc1-c1ccc(Nc2nc(NC3CCC3)c3c(C#N)c[nH]c3n2)c2c1OCCO2` [Example 82, 4-(cyclobutylamino)-2-((8-(1-methyl-1H-pyrazol-5-yl)-2,3-dihydrobenzo[b][1,4]dioxin-5-yl)amino)-7H-pyrrolo[2,3-d] pyrimidine-5-carbonitrile], the GI50 in assay [1] is < 100 nM. Besides, the IC50 in assay [2] was < 50 nM.
